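Protocol summary: plate cells (96-well), add compound at 5 concentrations, incubate 48 h, interpolate endpoints linearly. TGI: concentration producing complete growth inhibition.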 Where a SMILES comes first, the peptide text is derived from it. The star is where a group is joined. OSu = O=C1CCC(=O)N1O*
Columns and labels:
Assay in all cases: NCI tumour cell line growth inhibition, 48 h
ACHN renal = test system: ACHN renal
COLO 205 colon = test system: COLO 205 colon
NCI-H226 lung = test system: NCI-H226 lung
OVCAR-4 ovarian = test system: OVCAR-4 ovarian
SF-539 CNS = test system: SF-539 CNS
SW-620 colon = test system: SW-620 colon
SK-MEL-2 melanoma = test system: SK-MEL-2 melanoma
HCC-2998 colon = test system: HCC-2998 colon

SMILES	TGI (ACHN renal) [µM]	TGI (COLO 205 colon) [µM]	TGI (NCI-H226 lung) [µM]	TGI (OVCAR-4 ovarian) [µM]	TGI (SF-539 CNS) [µM]	TGI (SW-620 colon) [µM]	TGI (SK-MEL-2 melanoma) [µM]	TGI (HCC-2998 colon) [µM]
C/C(O[Si](C(C)C)(C(C)C)C(C)C)=C(\C)C(=O)N(C)c1ccccc1Cl	> 100	> 100	> 100	> 100	> 100	> 100		
C=CCCC(=O)C(=[N+]=[N-])C(=O)CCC(=O)c1ccccc1	> 10		> 10		> 10	> 10	> 10	
COc1ccc(CCN2C(=O)CC34C=CC(CC3C2=O)O4)cc1OC (stereo unspecified)	> 100	> 100		> 100	> 100	> 100	> 100	> 100
O=C1C(Cl)=C(NCCF)C(=O)c2ncccc21	5.22		3.99		3.23	3.35	4.23	2.71
COc1ccc2oc(C(=O)N3CC(CCl)c4ccc(N)cc43)cc2c1 (stereo unspecified)		1.28	14.1		5.66	31.5	0.72	1.19
CC(=O)NC1(C)C(C)C2CC1C(C)C2(C)C (stereo unspecified)	> 100	> 100	> 100	> 100	> 100	> 100		> 100
CC12CCC(CC1(Cl)Cl)C2 (stereo unspecified)	> 100	> 100	> 100	> 100		> 100	> 100	
CC(=O)O[C@H]1C(=O)[C@@]2(C)[C@H]([C@H](OC(=O)c3ccccc3)[C@]3(O)C[C@H](OC(=O)[C@H](O)[C@@H](NC(=O)c4ccc(N(C)C)cc4)c4ccccc4)C(C)=C1C3(C)C)[C@]1(OC(C)=O)CO[C@@H]1C[C@@H]2O	> 50			> 50		> 50		
Cc1ccc(S(=O)(=O)NC(=O)NC(CCC(N)=O)C(=O)O)cc1 (stereo unspecified)	> 100	> 100		> 100	> 100	> 100	> 100	
C#C[C@]1(O)CC[C@H]2[C@@H]3CCC4=C/C(=N/OC(=O)c5cccc6c(=O)c7ccccc7[nH]c56)CCC4[C@H]3CC[C@@]21CC (stereo partly specified)	> 100	> 79.9	> 100	> 100		> 63.5	> 100	> 90.9
C1=NCCOCCN=Cc2ccc(cc2)OCc2cccc(n2)COc2ccc1cc2	> 100	> 100	> 100	> 100	> 100	> 100	> 100	
NCCCCC(NC(=O)C(N)Cc1ccc(O)cc1)C(=O)NC(Cc1ccc(O)cc1)C(=O)NC(CCCCN)C(=O)ON1C(=O)CCC1=O (stereo unspecified) (H-YKYK-OSu; configuration not given here)	> 100	> 100	> 100			> 100	> 100	> 100
CC(=O)c1c(O)n(-c2ccc(C)cc2)c(=O)c2c(N)n[nH]c12		> 100	> 100	> 100	> 100	> 100	> 100	> 100
COC(=O)C1(O)C(c2ccccc2)NC2(C)CCCC21 (stereo unspecified)	> 100	> 100	> 100	> 100	> 100	> 100	> 100	

— PubChem BioAssay (NCI)
